US20060167057A1, “Compounds for the treatment of CNS and amyloid associated diseases” (priority 2004, published 2006)

Biological target: T1, L1 transport system (large neutral amino acid carrier, L1-system carrier) (Rattus norvegicus, UniProt Q63016)
T1 construct: functionality of their endogenous transporters such as the L1-system carrier; endogenous in cells; host or cells: rat primary cerebrovascular (brain microcapillary) endothelial cells, RBEC
Assay: Competitive binding assay to the brain L1 transport system (L-[U-14C]phenylalanine on rat primary cerebrovascular endothelial cells)
Settings: for Status of Binding: compounds of Example 4, 10^−6, 10^−5 and 10^−4, Δ versus phenylalanine
Protocol: Compound samples in PBS (without Ca^+2, Mg^+2)-glucose 30 mM-HEPES 10 mM—DMSO 1% as prepared in Example 1 were thawed and left for at least 30 minutes at 20-23° C. before preparation of the following sub-dilutions for the competitive binding assay: • 200 μL of the stock solution were added to 800 μL PBS (without Ca^+2, Mg^+2)-Glucose-HEPES-1% DMSO (PBSD-1) [diluted 1:5 for a final 1:5 dilution] • 100 μL (1/5 dilution above) were added to 900 μL PBSD-1 [diluted 1:10 for a final 1:50 dilution] • 100 μL (1/50 dilution above) were added to 900 μL PBSD-1 [diluted 1:10 for a final 1:500 dilution]
These sub-dilutions were used immediately or stored overnight at 4° C. before the competitive binding assay. A volume of 45 μL of each of the compound dilutions (1:5, 1:50, 1:500) in PBSD-1 was added to the appropriate wells in the dilution plate.
Brains from sixty 24-day-old rats were dissected individually on a sterile lint moistened with ice cold Hanks' balanced salt solution (Gibco BRL, Grand Island, N.Y.) containing 10 mM HEPES (medium 1) supplemented with 0.1% BSA. Cerebellum, striatum, optic nerves, and brain stem (white matter) were removed. After a mid-sagittal section of the brain, the meninges and leptomeningeal debris were removed by rolling a sterile dry cotton swab on the cortices. (Ichikawa N, Naora K, Hirano H, Hashimoto M, Masumura S, and Iwamoto K (1996). Isolation and primary culture of rat cerebral microvascular endothelial cells for studying drug transport in vitro. J Pharmacol Toxicol Meth 36: 45-52.). Clean cortices were minced in pieces of ≈2 mm^3 in 15 mL of ice-cold medium 1-0.1% BSA. The preparation was divided into 4 sterile pre-weighed tubes and centrifuged at 330× g at 20-25° C. for 5 min. Tubes were weighed and pre-warmed (37° C.) and medium 1 with 0.5% BSA containing 0.3% collagenase and 10 μg/mL DNAse 1 (Roche, Laval, Quebec, Canada) were added to each tube (1 mL/g of tissue).
The brain-collagenase mixture was vigorously agitated in a water bath at 37° C. for 90 min. Fifteen min before the end of the digestion, the tissue was homogenized using a 10-mL pipette until a creamy mixture was obtained (≈20 aspirations). Cells were washed by adding medium 1 with 0.1% BSA to the homogenate (26 mL/tube) and centrifuged at 100× g at 20-25° C. for 7 min. This washing step was repeated 3 more times, once for 5 min and twice for 3 min. Each pellet was re-suspended in 25 mL of a 15% dextran solution prepared in medium 1 with 0.1% BSA and centrifuged at 3200× g at 4° C. for 25 min to isolate vessels from neural tissue and dextran layers. Vascular pellets were re-suspended in 5 mL Ca^++—Mg^++-free-medium 1 with 0.1% BSA (medium 2) at 20-25° C. and transferred in a 50-mL tube. Remaining vessels were collected by rinsing the tubes and pooling the rinsing suspension. (Rupnick M A, Carey A, and Williams S K (1988). Phenotypic diversity in cultured cerebral microvascular endothelial cells in vitro. Cell Develop Biol 24: 435-444.)
The vascular preparation was filtered and rinsed (20 mL of medium 2) through a sterile 355-μm mesh. The 355-μm filtrate was sequentially filtered twice (20 mL of medium 2) through sterile 112-μm meshes and rinsed (Stanimirovic D B, Wong J, Ball R, and Durkin J P (1995). Free radical-induced endothelial membrane dysfunction at the site of the blood-brain barrier: relationship between lipid peroxidation, Na,K-ATPase activity, and ^51Cr release. Neurochem Res 20:1417-1427.) and the latter filtrate was filtered and rinsed through a sterile 20-μm mesh. A final step of filtration and rinse was repeated through a double layer of 20-μm meshes. All 20-μm meshes, which retained the microcapillaries, were then transferred into a 50-mL tube containing 20 mL of a 0.1% collagenase/dispase (Roche) solution in medium 2 supplemented with 10 μg/mL DNAse 1 and 0.147 μg/mL tosyl-lysine-chloromethyl-ketone (Sigma Chemical Co., Oakville, Ontario, Canada) (medium 3).

T1 sequence (Q63016 whole entry): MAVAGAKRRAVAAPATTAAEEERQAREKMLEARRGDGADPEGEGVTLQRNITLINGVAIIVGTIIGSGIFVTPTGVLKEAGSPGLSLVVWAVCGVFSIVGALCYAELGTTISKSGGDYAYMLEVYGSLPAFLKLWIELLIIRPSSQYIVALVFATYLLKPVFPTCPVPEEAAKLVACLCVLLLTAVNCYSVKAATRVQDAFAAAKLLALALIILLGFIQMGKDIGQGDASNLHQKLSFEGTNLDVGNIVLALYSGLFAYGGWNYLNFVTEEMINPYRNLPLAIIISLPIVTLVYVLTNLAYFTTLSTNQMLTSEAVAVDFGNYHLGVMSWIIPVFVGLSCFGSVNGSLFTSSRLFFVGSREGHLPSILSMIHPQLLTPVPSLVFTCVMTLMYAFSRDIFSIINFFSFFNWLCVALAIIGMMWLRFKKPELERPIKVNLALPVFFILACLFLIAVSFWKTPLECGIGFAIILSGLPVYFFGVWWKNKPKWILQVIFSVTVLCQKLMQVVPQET
T1 sequence (Q794F9 whole entry partner): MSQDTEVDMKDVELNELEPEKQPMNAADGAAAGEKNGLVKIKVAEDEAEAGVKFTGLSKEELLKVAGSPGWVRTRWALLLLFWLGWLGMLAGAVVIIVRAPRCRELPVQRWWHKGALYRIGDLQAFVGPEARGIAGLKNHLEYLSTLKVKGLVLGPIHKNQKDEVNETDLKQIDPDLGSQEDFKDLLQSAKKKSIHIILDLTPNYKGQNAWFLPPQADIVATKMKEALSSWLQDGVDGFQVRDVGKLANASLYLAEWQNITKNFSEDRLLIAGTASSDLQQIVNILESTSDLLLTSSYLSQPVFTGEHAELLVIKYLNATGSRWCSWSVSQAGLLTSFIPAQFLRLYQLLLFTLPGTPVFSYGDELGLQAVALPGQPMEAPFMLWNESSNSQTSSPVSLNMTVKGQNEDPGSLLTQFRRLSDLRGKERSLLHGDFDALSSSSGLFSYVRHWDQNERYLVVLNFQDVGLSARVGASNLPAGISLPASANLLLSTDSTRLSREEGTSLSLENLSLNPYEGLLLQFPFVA

Comparison with the Binding of Phenylalanine (10^−4 M)	Comparison with the Binding of Phenylalanine (10^−5 M)	Comparison with the Binding of Phenylalanine (10^−6 M)	SMILES	Status of Binding
0 (X < 0 Rank 0)	1 (0 < X < 10 Rank 1)	1 (0 < X < 10 Rank 1)	NC(Cc1ccc(-c2ccc(CSc3nc4cc([N+](=O)[O-])ccc4[nH]3)cc2)cc1)C(=O)O (centres unmarked) [Compound 124]	
0 (X < 0 Rank 0)	0 (X < 0 Rank 0)	2 (10 < X < 20 Rank 2)	Cc1ccnc(SCc2ccc(-c3ccc(CC(N)C(=O)O)cc3)cc2)n1 (centres unmarked) [Compound 151]	
2 (10 < X < 20 Rank 2)	3 (X > 20 Rank 3)	3 (X > 20 Rank 3)	CCOC(=O)c1c[nH]c(SCc2ccc(-c3ccc(CC(N)C(=O)O)cc3)cc2)nc1=O (centres unmarked) [Compound 87]	
0 (X < 0 Rank 0)	0 (X < 0 Rank 0)	1 (0 < X < 10 Rank 1)	Cc1nc(SCc2cccc(CC(N)C(=O)O)n2)sc1CC(=O)O (centres unmarked) [Compound 92]	
3 (X > 20 Rank 3)	3 (X > 20 Rank 3)	3 (X > 20 Rank 3)	NC(Cc1cccc(CSc2nc3ccccc3[nH]2)n1)C(=O)O (centres unmarked) [Compound 27]	
2 (10 < X < 20 Rank 2)	3 (X > 20 Rank 3)	3 (X > 20 Rank 3)	NC(Cc1cccc(-c2cccc(Sc3nc4cc([N+](=O)[O-])ccc4s3)c2)c1)C(=O)O (centres unmarked) [Compound 109]	
			N[C@@H](Cc1cccc(CSc2nnc(-c3ccncc3)[nH]2)c1)C(=O)O [drawing 486]	2 (2: 10% ≧ Δ ≧ −10% similar binding affinity to phenylalanine)
			COc1ccc(-n2nnnc2[S+]([O-])Cc2cccc(C[C@H](N)C(=O)O)c2)cc1 (some centres unmarked) [drawing 481]	3 (3: Δ > 10%, significantly higher binding affinity than phenylalanine)
0 (X < 0 Rank 0)	0 (X < 0 Rank 0)	1 (0 < X < 10 Rank 1)	Cn1cnnc1SCc1cccc(CC(N)C(=O)O)c1 (centres unmarked) [Compound 141]	
0 (X < 0 Rank 0)	1 (0 < X < 10 Rank 1)	1 (0 < X < 10 Rank 1)	NC(Cc1cccc(-c2cccc(Sc3nc(-c4ccccc4)c(-c4ccccc4)[nH]3)c2)c1)C(=O)O (centres unmarked) [Compound 74]	
2 (10 < X < 20 Rank 2)	2 (10 < X < 20 Rank 2)	2 (10 < X < 20 Rank 2)	NC(Cc1cccc(-c2cccc(N3CCN(c4ccc(F)cc4)CC3)c2)c1)C(=O)O (centres unmarked) [Compound 105]	
			N[C@@H](Cc1cccc(CS(=O)(=O)c2ncc[nH]2)c1)C(=O)O [drawing 483]	1 (1: −10 > Δ > −50%, lower binding affinity than phenylalanine)
0 (X < 0 Rank 0)	1 (0 < X < 10 Rank 1)	2 (10 < X < 20 Rank 2)	NC(=O)C(N)Cc1cccc(CSc2nnc(-c3ccncc3)o2)c1 (centres unmarked) [Compound 11]	
0 (X < 0 Rank 0)	1 (0 < X < 10 Rank 1)	0 (X < 0 Rank 0)	O=C(O)C(Cc1cccc(CSc2ncnc3[nH]ncc23)n1)NS(=O)(=O)c1ccc(F)cc1 (centres unmarked) [Compound 64]	
			N[C@@H](Cc1cccc(CSc2nc3ccccc3[nH]2)n1)C(=O)O [drawing 471]	1 (1: −10 > Δ > −50%, lower binding affinity than phenylalanine)
1 (0 < X < 10 Rank 1)	3 (X > 20 Rank 3)	2 (10 < X < 20 Rank 2)	NC(=O)C(Cc1cccc(CSc2nnc(-c3ccncc3)o2)c1)NC(=O)NC(c1ccccc1)c1ccccc1 (centres unmarked) [Compound 55]	
0 (X < 0 Rank 0)	2 (10 < X < 20 Rank 2)	0 (X < 0 Rank 0)	NC(Cc1cccc(-c2cccc(N3CC=CCC3)c2)c1)C(=O)O (centres unmarked) [Compound 43]	
0 (X < 0 Rank 0)	1 (0 < X < 10 Rank 1)	1 (0 < X < 10 Rank 1)	Cc1nnc(SCc2ccc(-c3ccc(CC(N)C(=O)O)cc3)cc2)s1 (centres unmarked) [Compound 126]	
0 (X < 0 Rank 0)	0 (X < 0 Rank 0)	1 (0 < X < 10 Rank 1)	NC(Cc1ccc(-c2ccc(CSc3ccc4ccccc4n3)cc2)cc1)C(=O)O (centres unmarked) [Compound 159]	
			N[C@@H](Cc1cccc(CSc2nnc(-c3ccncc3)o2)c1)C(=O)O [drawing 484]	2 (2: 10% ≧ Δ ≧ −10% similar binding affinity to phenylalanine)
0 (X < 0 Rank 0)	0 (X < 0 Rank 0)	3 (X > 20 Rank 3)	NC(Cc1cccc(CSc2nnc[nH]2)n1)C(=O)O (centres unmarked) [Compound 35]	
1 (0 < X < 10 Rank 1)	1 (0 < X < 10 Rank 1)	1 (0 < X < 10 Rank 1)	NC(Cc1cccc(CSc2nc3ccccc3c(=O)[nH]2)c1)C(=O)O (centres unmarked) [Compound 110]	
0 (X < 0 Rank 0)	2 (10 < X < 20 Rank 2)	1 (0 < X < 10 Rank 1)	NC(Cc1cccc(CSc2nccc(C(F)(F)F)n2)n1)C(=O)O (centres unmarked) [Compound 21]	
0 (X < 0 Rank 0)	0 (X < 0 Rank 0)	1 (0 < X < 10 Rank 1)	Cc1nc(SCc2ccc(-c3ccc(CC(N)C(=O)O)cc3)cc2)sc1CC(=O)O (centres unmarked) [Compound 122]	
0 (X < 0 Rank 0)	1 (0 < X < 10 Rank 1)	0 (X < 0 Rank 0)	NC(Cc1cccc(CN2CCN(c3ccccn3)CC2)n1)C(=O)O (centres unmarked) [Compound 98]	
0 (X < 0 Rank 0)	2 (10 < X < 20 Rank 2)	2 (10 < X < 20 Rank 2)	NC(Cc1cccc(CSc2nnnn2CC(=O)O)n1)C(=O)O (centres unmarked) [Compound 123]	
3 (X > 20 Rank 3)	3 (X > 20 Rank 3)	3 (X > 20 Rank 3)	NC(Cc1cccc(CSc2ncc[nH]2)c1)C(=O)O (centres unmarked) [Compound 5]	
1 (0 < X < 10 Rank 1)	0 (X < 0 Rank 0)	0 (X < 0 Rank 0)	NC(Cc1cccc(CSc2ncccn2)n1)C(=O)O (centres unmarked) [Compound 154]	

SMILES	Comparison with the Binding of Phenylalanine (10^−4 M)	Comparison with the Binding of Phenylalanine (10^−5 M)	Comparison with the Binding of Phenylalanine (10^−6 M)	Status of Binding
N#CC1(c2ccccc2)CCN(Cc2ccc(-c3ccc(CC(N)C(=O)O)cc3)cc2)CC1 (centres unmarked) [Compound 147]	0 (X < 0 Rank 0)	0 (X < 0 Rank 0)	1 (0 < X < 10 Rank 1)	
